Assay results as given in patent US12410160B2 (Gilead Sciences, Inc., priority 2021, dated 2025).
Where two headings read alike, the source gives them in different places.

Legend:
[1] = biological target: KHK-C expressed in NRK-52E cells (Homo sapiens (Human), UniProt P50053); assay: KHK-C Cell-based Assay (EC50), NRK CTG, fructose-mediated ATP-depletion
human KHK-C = human KHK-C (Homo sapiens (Human), UniProt P50053); assay: KHK Biochemical Assay (IC50), ADP-Glo, KHK-C; conditions: average of at least two separate assays
Sequence of human KHK-C (P50053 whole entry): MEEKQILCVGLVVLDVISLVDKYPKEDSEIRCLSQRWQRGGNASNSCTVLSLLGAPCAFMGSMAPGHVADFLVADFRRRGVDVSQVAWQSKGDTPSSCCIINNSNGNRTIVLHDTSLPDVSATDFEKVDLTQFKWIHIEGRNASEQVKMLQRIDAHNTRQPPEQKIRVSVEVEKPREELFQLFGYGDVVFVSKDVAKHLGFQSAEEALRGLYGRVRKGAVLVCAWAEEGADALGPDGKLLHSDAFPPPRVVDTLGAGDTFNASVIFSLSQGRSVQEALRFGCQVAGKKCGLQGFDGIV
Summary of the method: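 ADP-Glo luminescence measured ADP made over a 4 h room-temperature reaction of ATP plus fructose, started after 30 min compound–enzyme pre-incubation. Buffer: 50 mM Hepes pH 7.4, 140 mM KCl, 5 mM MgCl2, 0.01% Triton-X. Enzyme was His-tagged, BL21 (DE3)-expressed, Ni-NTA-purified; compounds in 1:3 DMSO dilution series.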

[2] = read-out: NRK CTG EC50, NRK-52E cells, Cell-Titer Glo, 25 mM fructose

Sequence of KHK-C expressed in NRK-52E cells (P50053 whole entry): as above

Row | Molecule | EC50 [1, 2] [nM] | IC50 (human KHK-C) [nM] | EC50 [1] [nM] | IC50 (human KHK-C; ADP-Glo) [nM]
1 | (1S)-1-[4-[7,7-difluoro-2-[(2S)-2-methylazetidin-1-yl]-5,6-dihydrocyclopenta[d]pyrimidin-4-yl]phenyl]-2,2-difluoro-ethanamine [Example 652] | 193 | 23.6 |  | 
2 | NC(=O)c1ccc(-c2nc(N3CCCC34CC4)nc3c2CCC3)cc1 [Example 402, 4-(2-(4-azaspiro[2.4]heptan-4-yl)-6,7-dihydro-5H-cyclopenta[d]pyrimidin-4-yl)benzamide] |  | 3760 | 1590 | 
3 | C[C@H]1CCN1c1nc2c(c(-c3ccc4c(c3)CS(=O)(=O)C4)n1)CCC2 [Example 422, (S)-5-(2-(2-methylazetidin-1-yl)-6,7-dihydro-5H-cyclopenta[d]pyrimidin-4-yl)-1,3-dihydrobenzo[c]thiophene 2,2-dioxide] |  | 95 | 240 | 
4 | CNC(=O)c1ccc(-c2nc(N3C[C@@H](O)[C@@H]3C)nc3c2CCC3(F)F)cc1 [Example 171, 4-(7,7-difluoro-2-((2S,3R)-3-hydroxy-2-methylazetidin-1-yl)-6,7-dihydro-5H-cyclopenta[d]pyrimidin-4-yl)-N-methylbenzamide] |  |  | 165 | 23.5
5 | NC(=O)c1ccc(-c2nc(N3CCC3)nc3c2CCC3)cc1 [Example 405, 4-(2-(azetidin-1-yl)-6,7-dihydro-5H-cyclopenta[d]pyrimidin-4-yl)benzamide] |  | 2470 | 4770 | 
6 | C[C@H](NS(C)(=O)=O)c1cccc(-c2nc(N3C[C@@H](O)[C@@H]3C)nc3c2CCC3(F)F)c1 [Example 745, N-[(1S)-1-[3-[7,7-difluoro-2-[(2S,3R)-3-hydroxy-2-methyl-azetidin-1-yl]-5,6-dihydrocyclopenta[d]pyrimidin-4-yl]phenyl]ethyl]methanesulfonamide] |  | 25.4 | 162 | 
7 | C[C@H]1CCN1c1nc2c(c(-c3cccc([C@H]4C[C@H](C(=O)O)C4)c3)n1)CCC2 (single isomer, unassigned) [Example 441] | 211 | 7 |  | 
8 | C[C@H]1CCN1c1nc2c(c(-c3nc4ccc(C(=O)O)cc4n3C)n1)CCC2 [Example 395, 3-methyl-2-[2-[(2S)-2-methylazetidin-1-yl]-6,7-dihydro-5H-cyclopenta[d]pyrimidin-4-yl]benzimidazole-5-carboxylic acid] |  | 329 | > 5000 | 
9 | NC(=O)c1ccc(-c2nc(N3CC[C@@H]3C(=O)O)nc3c2CCC3)cc1 [Example 442, (2R)-1-[4-(4-carbamoylphenyl)-6,7-dihydro-5H-cyclopenta[d]pyrimidin-2-yl]azetidine-2-carboxylic acid] |  | 1580 | 2730 | 
10 | C[C@H]1[C@H](O)CN1c1nc(-c2ccc(C3(N)COC3)c(F)c2)c2c(n1)C(F)(F)CC2 [Example 503, (2S,3R)-1-(4-(4-(3-aminooxetan-3-yl)-3-fluorophenyl)-7,7-difluoro-6,7-dihydro-5H-cyclopenta[d]pyrimidin-2-yl)-2-methylazetidin-3-ol] |  | 5 | 26.7 | 
11 | C[C@H]1[C@H](O)CN1c1nc(-c2ccc(C(=O)NCC#N)cc2)c2c(n1)C(F)(F)CC2 [Example 737, N-(cyanomethyl)-4-(7,7-difluoro-2-((2S,3R)-3-hydroxy-2-methylazetidin-1-yl)-6,7-dihydro-5H-cyclopenta[d]pyrimidin-4-yl)benzamide] |  | 9.7 | 242 | 
12 | C[C@H]1CCN1c1nc2c(c(-c3cc(Cl)cc([C@H]4C[C@@H]4C(=O)O)c3)n1)CCC2 [Example 443, (1S,2S)-2-[3-chloro-5-[2-[(2S)-2-methylazetidin-1-yl]-6,7-dihydro-5H-cyclopenta[d]pyrimidin-4-yl]phenyl]cyclopropanecarboxylic acid] |  | 4.2 | 53.8 | 
13 | C[C@H]1[C@H](O)CN1c1nc2c(c(-c3ccc(CNS(C)(=O)=O)cc3)n1)CCC2 [Example 195, N-[[4-[2-[(2S,3R)-3-hydroxy-2-methyl-azetidin-1-yl]-6,7-dihydro-5H-cyclopenta[d]pyrimidin-4-yl]phenyl]methyl]methanesulfonamide] |  |  | 431 | 58.6
14 | C[C@H](NS(C)(=O)=O)c1ccc(-c2nc(N3C[C@@H](O)[C@@H]3C)nc3c2CCC3(F)F)cc1 [Example 744, N-[(1S)-1-[4-[7,7-difluoro-2-[(2S,3R)-3-hydroxy-2-methyl-azetidin-1-yl]-5,6-dihydrocyclopenta[d]pyrimidin-4-yl]phenyl]ethyl]methanesulfonamide] |  | 17.2 | 142 | 
15 | C[C@H]1[C@H](O)CN1c1nc(-c2ccc(C3(N)COC3)nc2)c2c(n1)C(F)(F)CC2 [Example 506, (2S,3R)-1-(4-(6-(3-aminooxetan-3-yl)pyridin-3-yl)-7,7-difluoro-6,7-dihydro-5H-cyclopenta[d]pyrimidin-2-yl)-2-methylazetidin-3-ol] |  | > 5000 | > 5000 | 
16 | C[C@H]1CCN1c1nc2c(c(-c3cccc(C4=CS(=O)(=O)C4)c3)n1)CCC2 [Example 420, (S)-3-(3-(2-(2-methylazetidin-1-yl)-6,7-dihydro-5H-cyclopenta[d]pyrimidin-4-yl)phenyl)-2H-thiete 1,1-dioxide] |  | 61.8 | 382 | 
17 | C[C@H]1CCN1c1nc2c(c(-c3ccc4nc(N)oc4c3)n1)CCC2 [Example 728, (S)-6-(2-(2-methylazetidin-1-yl)-6,7-dihydro-5H-cyclopenta[d]pyrimidin-4-yl)benzo[d]oxazol-2-amine] |  | 22.2 | 52.1 | 
18 | C[C@H]1CCN1c1nc2c(c(-c3cccc(C4CS(=O)(=O)C4)c3)n1)CCC2 [Example 421, (S)-3-(3-(2-(2-methylazetidin-1-yl)-6,7-dihydro-5H-cyclopenta[d]pyrimidin-4-yl)phenyl)thietane 1,1-dioxide] |  | 67 | 297 | 
19 | C[C@H]1[C@@H](O)CN1c1nc2c(c(-c3ccc(C(N)=O)cc3)n1)CCC2 [Example 169, 4-(2-((2S,3S)-3-hydroxy-2-methylazetidin-1-yl)-6,7-dihydro-5H-cyclopenta[d]pyrimidin-4-yl)benzamide] |  |  | > 5000 | 4430
20 | CC1CCC1c1nc2c(c(-c3ccc(C(N)=O)cc3)n1)CCC2 (stereo not drawn) [Example 501, 4-(2-(2-methylcyclobutyl)-6,7-dihydro-5H-cyclopenta[d]pyrimidin-4-yl)benzamide] |  | 212 | 597 | 
21 | C[C@H]1CCN1c1nc2c(c(-c3ccncn3)n1)CCC2 [Example 393, 2-[(2S)-2-methylazetidin-1-yl]-4-pyrimidin-4-yl-6,7-dihydro-5H-cyclopenta[d]pyrimidine] |  | 219 | 403 | 
22 | C[C@H]1[C@H](O)CN1c1nc2c(c(-c3cccc(CNS(=O)(=O)C4CC4)c3)n1)CCC2 [Example 610] |  | 80.7 | 610 | 
23 | CSCC1CCN1c1nc2c(c(-c3ccc(C(N)=O)cc3)n1)CCC2 (stereo not drawn) [Example 415, 4-(2-(2-((methylthio)methyl)azetidin-1-yl)-6,7-dihydro-5H-cyclopenta[d]pyrimidin-4-yl)benzamide] |  | > 5000 | > 5000 | 
24 | NC(=O)c1ccc(-c2nc(N3CCCC3=O)nc3c2CCC3)cc1 [Example 418, 4-(2-(2-oxopyrrolidin-1-yl)-6,7-dihydro-5H-cyclopenta[d]pyrimidin-4-yl)benzamide] |  | > 5000 | > 5000 | 
